Data reported in patent US20170037008A1, “PHENYL BENZYL ETHER DERIVATIVE AND PREPARATION METHOD AND APPLICATION THEREOF” (BEIJING ZHIBO BIO-MEDICAL TECHNOLOGY CO., LTD, priority 2013, published 2017).
Where two headings read alike, the source gives them in different places.

Experiments:
Aβ1-42 aggregates = target: T1, Aβ1-42 aggregates (Homo sapiens, UniProt P05067); experiment: In-vitro competitive binding experiments (Ki determination) with Aβ1-42 aggregates; conditions: for affinity with the Aβ1-42 aggregates compared with IMPY and PIB: competitive binding experiments
T1 construct: Preparing receptor Aβ1-42 proteins according to the existing method
T1 sequence (P05067 672-713 limits assumed): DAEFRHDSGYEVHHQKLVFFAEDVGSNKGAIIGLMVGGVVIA
Description: Binding reaction occurs between Aβ1-42 aggregate proteins with certain concentration and radioactive ligands [^125I] […] 4, the compounds are separated after balancing, and the inhibition constant (Ki) is calculated by determining radioactivity.
(1) Preparing 4 l of PBS (0.2M) buffer solution with pH=7.4;
(2) Preparing radioligand [^125]
(3) Preparing the compounds to be determined into 10^−3 to 10^−9 mol/L continuously diluted ethanol solution;
(4) Preparing receptor Aβ1-42 proteins according to the existing method and diluting the proteins into 30 nM water solution;
(5) Soaking a glass fiber filter membrane in PBS solution containing 0.1% (volume fraction) polyethyleneimine for 0.5 h;
(6) Respectively adding 100 μl of solution of compounds with different concentration and to be determined, 100 μl of [^125I]
(7) Oscillating and incubating for 2 h in 37° C. constant-temperature water bath;
(8) Collecting reaction liquid by using a multi-head cell collector, and washing the reaction liquid for three times by using PBS, 3 ml per time;
(9) Measuring and counting by using a γ counter; and […]

[1] = Biological distribution in bodies of normal mice; format: in vivo, mice (ICR); conditions: caudal vein injection
Description: Through in-vivo distribution experiments, pharmacokinetic features, especially initial bran intake and brain removal situations of ^18F or ^125I labeled compounds in the bodies of mice are studied. […] Data are expressed in radioactive percentage dosage per organ (% ID/organ) and radioactive percentage dosage per gram of organ (% ID/g).

[2] = competition against radioligand [^125I] IMPY, Aβ1-42 aggregates, 37° C., 2 h

| Compound | Ki (Aβ1-42 aggregates) [µM] | further results |
| --- | --- | --- |
| COc1ccccc1OCc1ccc(I)cc1 [Compound 6, 1-(4-iodobenzyloxy)-2-methoxybenzene] | 6.11 ± 0.458 |  |
| Nc1ccc(OCc2ccc(I)cc2)cc1 [Compound 16, 4-(4-iodobenzyloxy) aniline] | 0.484 ± 0.0532 |  |
| FCCOc1ccc(COc2cccnc2I)cc1 [Compound 65] |  | Ki (Aβ1-42 aggregates; [2]): 2.08 ± 0.458 µM |
| O=c1ccc(I)cn1Cc1ccc(I)cc1 [Compound 58] |  | Ki (Aβ1-42 aggregates; [2]): 1.06 µM |
| COc1ccc(OCc2ccc(I)cc2)cc1 [Compound 4, 1-iodo-4-((4-methoxyphenoxy)methyl) benzene] | 0.0287 ± 0.008 | affinity with the Aβ1-42 aggregates compared with IMPY and PIB (Aβ1-42 aggregates): higher than that of the known compounds IMPY and PIB |
| CNc1ccc(OCc2ccc(OCCF)cc2)cc1 [Compound 46, 4-(4-(2-fluoroethoxy)benzyloxy)-N-methylaniline] | 0.46 ± 0.082 |  |
| CN(C)c1ccc(CNc2ccc(I)cc2)cc1 [Compound 67, 4-(((4-iodophenyl)amino)methyl)-N,N-dimethylaniline] | 0.124 ± 0.0143 |  |
| COc1ccc(COc2ccc(I)cc2)cc1 [Compound 24, 1-iodo-4-(4-methoxybenzyloxy) benzene] | 0.0585 ± 0.0035 |  |
| CNc1ccccc1OCc1ccc(I)cc1 [Compound 21, 2-(4-iodobenzyloxy)-N-methylaniline] | > 20 |  |
| CN(C)c1ccc(-c2cn3cc([125I])ccc3n2)cc1 [[^125I]IMPY, reference compound] |  | Blood ([1]; 2 min): 3.85 ± 0.53 % ID/g; Brain ([1]; 2 min): 5.05 ± 0.38 % ID/g; Thyroid ([1]; 2 min): 0.12 ± 0.05 % ID/organ; Blood ([1]; 10 min): 2.81 ± 0.33 % ID/g; Brain ([1]; 10 min): 1.80 ± 0.12 % ID/g; Thyroid ([1]; 10 min): 0.09 ± 0.03 % ID/organ; Blood ([1]; 30 min): 1.50 ± 0.20 % ID/g; Brain ([1]; 30 min): 0.67 ± 0.15 % ID/g; Thyroid ([1]; 30 min): 0.22 ± 0.08 % ID/organ; Blood ([1]; 60 min): 1.03 ± 0.10 % ID/g; Brain ([1]; 60 min): 0.45 ± 0.07 % ID/g; Thyroid ([1]; 60 min): 0.30 ± 0.09 % ID/organ |
| COc1ccc(SCc2ccc(I)cc2)cc1 [Compound 25, (4-iodobenzyl) (4-methoxyphenyl) sulfane] | 0.627 ± 0.129 |  |
| Clc1ccc(OCc2ccc(I)cc2)cc1 [Compound 11, 1-chloro-4-(4-iodobenzyloxy) benzene] | 0.0223 ± 0.0026 | affinity with the Aβ1-42 aggregates compared with IMPY and PIB (Aβ1-42 aggregates): higher than that of the known compounds IMPY and PIB |
| Ic1ccc(COc2ccc(I)cc2)cc1 [Compound 13, 1-iodo-4-(4-iodobenzyloxy) benzene] | 0.0259 ± 0.0024 | affinity with the Aβ1-42 aggregates compared with IMPY and PIB (Aβ1-42 aggregates): higher than that of the known compounds IMPY and PIB |
| CNc1ccc(OCc2ccc(I)cc2)cc1 [Compound 19, 4-(4-iodobenzyloxy)-N-methylaniline] | 0.057 ± 0.0051 |  |
| COc1ccc(OCc2ccc(OCCF)cc2)cc1 [Compound 44a, 1-(2-fluoroethoxy)-4-((4-methoxyphenoxy)methyl) benzene] | 0.167 ± 0.0345 |  |
| CN(C)c1ccc(OCc2ccc(I)cc2)cc1 [Compound 22, 4-(4-iodobenzyloxy)-N,N-dimethylaniline] | 0.0209 ± 0.0018 | affinity with the Aβ1-42 aggregates compared with IMPY and PIB (Aβ1-42 aggregates): higher than that of the known compounds IMPY and PIB |
| Oc1ccc(OCc2ccc(I)cc2)cc1 [Compound 7, 4-(4-iodobenzyloxy) phenol] | 0.134 ± 0.0281 |  |
| Oc1ccccc1OCc1ccc(I)cc1 [Compound 9, 2-(4-iodobenzyloxy) phenol] | 3.35 ± 0.611 |  |
| Ic1ccc(COc2ccccc2)cc1 [Compound 14, 1-iodo-4-(phenoxymethyl) benzene] | 0.0939 ± 0.0061 |  |
| Nc1cccc(OCc2ccc(I)cc2)c1 [Compound 17, 3-(4-iodobenzyloxy) aniline] | 1.81 ± 0.189 |  |
| Fc1ccc(OCc2ccc(I)cc2)cc1 [Compound 10, 1-fluoro-4-(4-iodobenzyloxy) benzene] | 0.127 ± 0.0182 |  |
| CN(C)c1ccc(OCc2ccc(OCCF)cc2)cc1 [Compound 47, 4-(4-(2-fluoroethoxy)benzyloxy)-N,N-dimethylaniline] | 0.023 ± 0.0053 | affinity with the Aβ1-42 aggregates compared with IMPY and PIB (Aβ1-42 aggregates): higher than that of the known compounds IMPY and PIB |
